Data published in US10681909B2, “Herbicidal triazoles” (FMC Corporation, priority 2014, dated 2020).

How the values were obtained:
morningglory [1] = test: Test A preemergence; assay type: in vivo, Ipomoea spp.; conditions: 0 to 100 scale (0 no effect, 100 complete control)
Excerpt: (§1) Seeds of plant species selected from barnyardgrass (Echinochloa crus-galli), crabgrass, large (large crabgrass, Digitaria sanguinalis), kochia (Kochia scoparia), ragweed (common ragweed, Ambrosia elatior), foxtail, giant (giant foxtail, Setaria faberii), morningglory (Ipomoea spp.), pigweed (Amaranthus retroflexus), velvetleaf (Abutilon theophrasti), ryegrass, Italian (Italian ryegrass, Lolium multiflorum), wheat (Triticum aestivum), and corn (Zea mays) were planted into a blend of loam soil and sand and treated preemergence with a directed soil spray using test chemicals formulated in a non-phytotoxic solvent mixture which included a surfactant. At the same time, plants selected from these crop and weed species and also blackgrass (Alopecurus myosuroides), and galium (catchweed bedstraw, Galium aparine), were planted in pots containing the same blend of loam soil and sand and treated with postemergence applications of test chemicals formulated in the same manner. Plants ranged in height from 2 to 10 cm and were in the one- to two-leaf stage for the postemergence treatment. […] A dash (-) response means no test result.

ducksalad = test: Test B flooded paddy test; assay type: in vivo, Heteranthera limosa; conditions: applied to paddy water at 2-leaf stage, visual rating after 13 to 15 d, scale 0 (no effect) to 100 (complete control)
Excerpt: (§2) At time of treatment, test pots were flooded to 3 cm above the soil surface, treated by application of test compounds directly to the paddy water, and then maintained at that water depth for the duration of the test. Treated plants and controls were maintained in a greenhouse for 13 to 15 d, after which time all species were compared to controls and visually evaluated. […] A dash (-) response means no test result.

velvetleaf [2] = test: Test A postemergence; assay type: in vivo, Abutilon theophrasti; conditions: 0 to 100 scale (0 no effect, 100 complete control), approx. 10 d
Excerpt: as §1

wheat [3] = test: Test A postemergence; assay type: in vivo, Triticum aestivum; conditions: 0 to 100 scale (0 no effect, 100 complete control), approx. 10 d
Excerpt: as §1

barnyardgrass [4] = test: Test B flooded paddy test; assay type: in vivo, Echinochloa crus-galli; conditions: applied to paddy water at 2-leaf stage, visual rating after 13 to 15 d, scale 0 (no effect) to 100 (complete control)
Excerpt: as §2

corn [5] = test: Test A postemergence; assay type: in vivo, Zea mays; conditions: 0 to 100 scale (0 no effect, 100 complete control), approx. 10 d
Excerpt: as §1

rice = test: Test B flooded paddy test; assay type: in vivo, Oryza sativa; conditions: applied to paddy water at 2-leaf stage, visual rating after 13 to 15 d, scale 0 (no effect) to 100 (complete control)
Excerpt: as §2

velvetleaf [6] = test: Test A preemergence; assay type: in vivo, Abutilon theophrasti; conditions: 0 to 100 scale (0 no effect, 100 complete control)
Excerpt: as §1

crabgrass, large [7] = test: Test A postemergence; assay type: in vivo, Digitaria sanguinalis; conditions: 0 to 100 scale (0 no effect, 100 complete control), approx. 10 d
Excerpt: as §1

barnyardgrass [8] = test: Test A preemergence; assay type: in vivo, Echinochloa crus-galli; conditions: 0 to 100 scale (0 no effect, 100 complete control)
Excerpt: as §1

barnyardgrass [9] = test: Test A postemergence; assay type: in vivo, Echinochloa crus-galli; conditions: 0 to 100 scale (0 no effect, 100 complete control), approx. 10 d
Excerpt: as §1

crabgrass, large [10] = test: Test A preemergence; assay type: in vivo, Digitaria sanguinalis; conditions: 0 to 100 scale (0 no effect, 100 complete control)
Excerpt: as §1

foxtail, giant [11] = test: Test A preemergence; assay type: in vivo, Setaria faberii; conditions: 0 to 100 scale (0 no effect, 100 complete control)
Excerpt: as §1

morningglory [12] = test: Test A postemergence; assay type: in vivo, Ipomoea spp.; conditions: 0 to 100 scale (0 no effect, 100 complete control), approx. 10 d
Excerpt: as §1

pigweed [13] = test: Test A preemergence; assay type: in vivo, Amaranthus retroflexus; conditions: 0 to 100 scale (0 no effect, 100 complete control)
Excerpt: as §1

corn [14] = test: Test A preemergence; assay type: in vivo, Zea mays; conditions: 0 to 100 scale (0 no effect, 100 complete control)
Excerpt: as §1

wheat [15] = test: Test A preemergence; assay type: in vivo, Triticum aestivum; conditions: 0 to 100 scale (0 no effect, 100 complete control)
Excerpt: as §1

sedge, umbrella = test: Test B flooded paddy test; assay type: in vivo, Cyperus difformis; conditions: applied to paddy water at 2-leaf stage, visual rating after 13 to 15 d, scale 0 (no effect) to 100 (complete control)
Excerpt: as §2

foxtail, giant [16] = test: Test A postemergence; assay type: in vivo, Setaria faberii; conditions: 0 to 100 scale (0 no effect, 100 complete control), approx. 10 d
Excerpt: as §1

pigweed [17] = test: Test A postemergence; assay type: in vivo, Amaranthus retroflexus; conditions: 0 to 100 scale (0 no effect, 100 complete control), approx. 10 d
Excerpt: as §1

Row | SMILES | Plant response rating, Morningglory (morningglory [1]; 125 g ai/ha) | Plant response rating, Morningglory (morningglory [1]; 500 g ai/ha, approx. 10 d) | Plant response rating, Velvetleaf (velvetleaf [2]; 125 g ai/ha) | Plant response rating, Velvetleaf (velvetleaf [2]; 500 g ai/ha) | Plant response rating, Wheat (wheat [3]; 125 g ai/ha) | Plant response rating, Wheat (wheat [3]; 500 g ai/ha) | Plant response rating, Corn (corn [5]; 125 g ai/ha) | Plant response rating, Corn (corn [5]; 500 g ai/ha) | Plant response rating, Velvetleaf (velvetleaf [6]; 125 g ai/ha) | Plant response rating, Velvetleaf (velvetleaf [6]; 500 g ai/ha, approx. 10 d) | Plant response rating, Crabgrass, Large (crabgrass, large [7]; 125 g ai/ha) | Plant response rating, Crabgrass, Large (crabgrass, large [7]; 500 g ai/ha) | Plant response rating, Barnyardgrass (barnyardgrass [8]; 125 g ai/ha) | Plant response rating, Barnyardgrass (barnyardgrass [8]; 500 g ai/ha, approx. 10 d) | Plant response rating, Barnyardgrass (barnyardgrass [9]; 125 g ai/ha) | Plant response rating, Barnyardgrass (barnyardgrass [9]; 500 g ai/ha) | Plant response rating, Crabgrass, Large (crabgrass, large [10]; 125 g ai/ha) | Plant response rating, Crabgrass, Large (crabgrass, large [10]; 500 g ai/ha, approx. 10 d) | Plant response rating, Foxtail, Giant (foxtail, giant [11]; 125 g ai/ha) | Plant response rating, Foxtail, Giant (foxtail, giant [11]; 500 g ai/ha, approx. 10 d) | also measured
1 | CCc1nc(-c2ccc(F)cc2)nn1Cc1ccnc(C(F)(F)F)c1 [Compound 2] | 0 | 60 | 30 | 100 | 0 | 70 | 20 | 90 | 0 | 40 | 70 | 100 | 0 | 80 | 20 | 90 | 100 | 100 | 80 | 100 | Plant response rating, Ducksalad, Flood (ducksalad; 125 g ai/ha): 30; Plant response rating, Barnyardgrass, Flood (barnyardgrass [4]; 125 g ai/ha): 0; Plant response rating, Rice, Flood (rice; 125 g ai/ha): 20; Plant response rating, Morningglory (morningglory [12]; 125 g ai/ha): 70; Plant response rating, Morningglory (morningglory [12]; 500 g ai/ha): 90; Plant response rating, Pigweed (pigweed [13]; 125 g ai/ha): 100; Plant response rating, Pigweed (pigweed [13]; 500 g ai/ha, approx. 10 d): 100; Plant response rating, Corn (corn [14]; 125 g ai/ha): 0; Plant response rating, Corn (corn [14]; 500 g ai/ha, approx. 10 d): 0; Plant response rating, Wheat (wheat [15]; 125 g ai/ha): 0; Plant response rating, Wheat (wheat [15]; 500 g ai/ha, approx. 10 d): 20; Plant response rating, Sedge, Umbrella, Flood (sedge, umbrella; 125 g ai/ha): 75; Plant response rating, Foxtail, Giant (foxtail, giant [16]; 125 g ai/ha): 70; Plant response rating, Foxtail, Giant (foxtail, giant [16]; 500 g ai/ha): 90; Plant response rating, Pigweed (pigweed [17]; 125 g ai/ha): 100; Plant response rating, Pigweed (pigweed [17]; 500 g ai/ha): 100
2 | Cc1nc(-c2ccc(C(F)(F)F)cc2)nn1Cc1ccnc(C(F)(F)F)c1 [Compound 7] | 10 | 60 | 80 | 100 | 20 | 50 | 30 | 50 | 20 | 70 | 50 | 90 | 20 | 80 | 40 | 80 | 90 | 100 | 80 | 100 | Plant response rating, Ducksalad, Flood (ducksalad; 250 g ai/ha): 0; Plant response rating, Barnyardgrass, Flood (barnyardgrass [4]; 250 g ai/ha): 0; Plant response rating, Rice, Flood (rice; 250 g ai/ha): 0; Plant response rating, Morningglory (morningglory [12]; 125 g ai/ha): 50; Plant response rating, Morningglory (morningglory [12]; 500 g ai/ha): 80; Plant response rating, Pigweed (pigweed [13]; 125 g ai/ha): 90; Plant response rating, Pigweed (pigweed [13]; 500 g ai/ha, approx. 10 d): 100; Plant response rating, Corn (corn [14]; 125 g ai/ha): 10; Plant response rating, Corn (corn [14]; 500 g ai/ha, approx. 10 d): 10; Plant response rating, Wheat (wheat [15]; 125 g ai/ha): 0; Plant response rating, Wheat (wheat [15]; 500 g ai/ha, approx. 10 d): 10; Plant response rating, Sedge, Umbrella, Flood (sedge, umbrella; 250 g ai/ha): 85; Plant response rating, Foxtail, Giant (foxtail, giant [16]; 125 g ai/ha): 60; Plant response rating, Foxtail, Giant (foxtail, giant [16]; 500 g ai/ha): 90; Plant response rating, Pigweed (pigweed [17]; 125 g ai/ha): 100; Plant response rating, Pigweed (pigweed [17]; 500 g ai/ha): 100
3 | CCCOc1nc(-c2ccc(F)cc2)nn1Cc1ccnc(C(F)(F)F)c1 [Compound 10] | 10 | 20 | 50 | 80 | 10 | 10 | 20 | 30 | 0 | 30 | 40 | 90 | 30 | 100 | 40 | 80 | 100 | 100 | 100 | 100 | Plant response rating, Ducksalad, Flood (ducksalad; 125 g ai/ha): 70; Plant response rating, Barnyardgrass, Flood (barnyardgrass [4]; 125 g ai/ha): 45; Plant response rating, Rice, Flood (rice; 125 g ai/ha): 20; Plant response rating, Morningglory (morningglory [12]; 125 g ai/ha): 50; Plant response rating, Morningglory (morningglory [12]; 500 g ai/ha): 90; Plant response rating, Pigweed (pigweed [13]; 125 g ai/ha): 100; Plant response rating, Pigweed (pigweed [13]; 500 g ai/ha, approx. 10 d): 100; Plant response rating, Corn (corn [14]; 125 g ai/ha): 0; Plant response rating, Corn (corn [14]; 500 g ai/ha, approx. 10 d): 20; Plant response rating, Wheat (wheat [15]; 125 g ai/ha): 0; Plant response rating, Wheat (wheat [15]; 500 g ai/ha, approx. 10 d): 20; Plant response rating, Sedge, Umbrella, Flood (sedge, umbrella; 125 g ai/ha): 80; Plant response rating, Foxtail, Giant (foxtail, giant [16]; 125 g ai/ha): 50; Plant response rating, Foxtail, Giant (foxtail, giant [16]; 500 g ai/ha): 90; Plant response rating, Pigweed (pigweed [17]; 125 g ai/ha): 100; Plant response rating, Pigweed (pigweed [17]; 500 g ai/ha): 100
